{
  "source": "patent US6642216B2",
  "about": "“Isoprenoid pathway inhibitors for stimulating bone growth” (ZymoGenetics Corporation, priority 1996, dated 2003)",
  "key": {"neonatal mouse calvaria": {"system": "neonatal mouse calvaria", "test": "Neonatal mouse calvaria assay (in vitro bone formation)", "type": "cell-based", "experimental": "Briefly, four days after birth, the front and parietal bones of ICR Swiss white mouse pups are removed by microdissection and split along the sagittal suture.\nThree μm sections of the calvaria are prepared. Representative sections are selected for histomorphometric assessment of bone formation or bone resorption. Bone changes are measured on sections cut 200 μm apart. Osteoblasts and osteoclasts are identified by their distinctive morphology.\nSelected compounds and appropriate controls were assayed in vitro (ex vivo) for bone formation activity (described above in “Neonatal Mouse Calvaria Assay (in vitro)”). Histomorphometrical assessments of ex vivo calvaria were carried out using an OsteoMetrics bone morphometry measurement program, according to the manufacturer's instructions. Measurements were determined using either a 10- or 20-fold objective with a standard point counting eyepiece graticule.\nNew bone formation was determined (using a 10× objective) by measuring the new bone area formed in one field in 3 representative sections of each bone (4 bones per group). Each measurement was carried out ½ field distance from the end of the suture. Both total bone and old bone area were measured. Data were expressed as new bone area in mm^2.\nOsteoblast numbers were determined by point counting. The number of osteoblast cells lining the bone surface on both sides of the bone were counted in one field using a 20× objective. Data were expressed as osteoblast numbers/mm of bone surface.\nThe results were calculated as new bone area in mm^2×10^−3, as above."}, "BMP-2 promoter": {"system": "BMP-2 promoter", "test": "ABA assay: BMP-2 promoter-luciferase reporter in 2T3-BMP-2-LUC osteoblast cells", "type": "cell-based, mouse", "experimental": "These transformed cells are then evaluated for the production of the reporter gene product; compounds that activate the BMP promoter will drive production of the reporter protein, which can be readily assayed.\nThe cells were cultured using α-MEM, 10% FCS with 1% penicillin/streptomycin and 1% glutamine (“plating medium”), and were split 1:5 once per week. For the assay, the cells were resuspended in a plating medium containing 4% FCS, plated in microtiter plates at a concentration of 5×10^3 cells (in 50 μl)/well, and incubated for 24 hours at 37° C. in 5% CO2. To initiate the assay, 50 μl of the test compound or the control in DMSO was added at 2× concentration to each well, so that the final volume was 100 μl. The final serum concentration was 2% FCS, and the final DMSO concentration was 1%.\nThe treated cells were incubated for 24 hours at 37° C. and 5% CO2. The medium was then removed, and the cells were rinsed three times with PBS. After removal of excess PBS, 25 μl of 1× cell culture lysing reagent (Promega #E153A) was added to each well and incubated for at least ten minutes. Optionally, the plates/samples could be frozen at this point. To each well was added 50 μl of luciferase substrate (Promega #E152A; 10 ml Promega luciferase assay buffer per 7 mg Promega luciferase assay substrate). Luminescence was measured on an automated 96-well luminometer, and was expressed as either picograms of luciferase activity per well or as picograms of luciferase activity per microgram of protein.\nAlternatively, the reactivity of a compound to be tested can be compared directly to a negative control containing no compound."}, "[1]": {"conditions": "under these conditions (0.1-1000 μM)"}},
  "data": [
    {"smiles": "O=P(O)(O)C(O)(Cc1cccnc1)P(=O)(O)O", "note": "[Risedronate, risedronate]", "values": [
      {"measurement": "effect on new bone area", "setting": "neonatal mouse calvaria; 10 μM and 100 μM", "result": "significant increases in new bone area"},
      {"measurement": "New Bone Area", "setting": "neonatal mouse calvaria; other bisphosphonates, 10 μM", "result": "8.5 ± 0.5", "unit": "mm^2 × 10^−3"},
      {"measurement": "New Bone Area", "setting": "neonatal mouse calvaria; other bisphosphonates, 100 μM", "result": "7.3 ± 1.9", "unit": "mm^2 × 10^−3"},
      {"measurement": "New Bone Area", "setting": "neonatal mouse calvaria; other bisphosphonates, 1000 μM", "result": "Toxic"}
    ]},
    {"smiles": "CC(O)(CCO)CC(=O)O", "note": "(stereo not shown) [mevalonate]", "values": [
      {"measurement": "effect of mevalonic acid on primary screen activity of 59-0008", "setting": "BMP-2 promoter", "result": "no effect"},
      {"measurement": "effect of added mevalonate on the activity of mevastatin in the ABA assay", "setting": "BMP-2 promoter; mevalonate 25-800 μM, mevastatin 100, 25, or 6.25 μM", "result": "inhibits the activity of mevastatin"}
    ]},
    {"smiles": "NCCC(O)(P(=O)(O)O)P(=O)(O)O", "note": "[Pamidronate, pamidronate]", "values": [
      {"measurement": "New Bone Area", "setting": "neonatal mouse calvaria; other bisphosphonates, 10 μM", "result": "6.0 ± 0.5", "unit": "mm^2 × 10^−3"},
      {"measurement": "New Bone Area", "setting": "neonatal mouse calvaria; other bisphosphonates, 100 μM", "result": "5.8 ± 0.6", "unit": "mm^2 × 10^−3"},
      {"measurement": "New Bone Area", "setting": "neonatal mouse calvaria; other bisphosphonates, 1000 μM", "result": "5.2 ± 0.6", "unit": "mm^2 × 10^−3"},
      {"measurement": "effect on new bone area", "setting": "neonatal mouse calvaria; [1]", "result": "negligible effects"}
    ]},
    {"smiles": "NCCCC(O)(P(=O)(O)O)P(=O)(O)O", "note": "[Alendronate, alendronate]", "values": [
      {"measurement": "New Bone Area", "setting": "neonatal mouse calvaria; other bisphosphonates, 0.1 μM", "result": "3.5 ± 0.3", "unit": "mm^2 × 10^−3"},
      {"measurement": "New Bone Area", "setting": "neonatal mouse calvaria; other bisphosphonates, 1 μM", "result": "5.2 ± 0.5", "unit": "mm^2 × 10^−3"},
      {"measurement": "New Bone Area", "setting": "neonatal mouse calvaria; other bisphosphonates, 10 μM", "result": "3.3 ± 0.6", "unit": "mm^2 × 10^−3"},
      {"measurement": "New Bone Area", "setting": "neonatal mouse calvaria; other bisphosphonates, 100 μM", "result": "Toxic"},
      {"measurement": "effect on new bone area", "setting": "neonatal mouse calvaria; [1]", "result": "negligible effects"}
    ]},
    {"smiles": "CCCCCN(C)CCC(O)(P(=O)(O)O)P(=O)(O)O", "note": "[Ibandronate, ibandronate]", "values": [
      {"measurement": "effect on bone formation (dose response curves)", "setting": "neonatal mouse calvaria; 10 μM", "result": "significant increase of bone formation"},
      {"measurement": "New Bone Area", "setting": "neonatal mouse calvaria; Experiment 1, 10 μM", "result": "8.3 ± 0.7", "unit": "mm^2 × 10^−3"},
      {"measurement": "New Bone Area", "setting": "neonatal mouse calvaria; Experiment 1, 100 μM", "result": "Toxic"},
      {"measurement": "New Bone Area", "setting": "neonatal mouse calvaria; Experiment 1, 1000 μM", "result": "Toxic"},
      {"measurement": "New Bone Area", "setting": "neonatal mouse calvaria; Experiment 2, 0.01 μM", "result": "3.5 ± 0.43", "unit": "mm^2 × 10^−3"},
      {"measurement": "New Bone Area", "setting": "neonatal mouse calvaria; Experiment 2, 0.1 μM", "result": "3.2 ± 0.56", "unit": "mm^2 × 10^−3"},
      {"measurement": "New Bone Area", "setting": "neonatal mouse calvaria; Experiment 2, 1 μM", "result": "4.9 ± 1.2", "unit": "mm^2 × 10^−3"},
      {"measurement": "New Bone Area", "setting": "neonatal mouse calvaria; Experiment 2, 10 μM", "result": "7.2 ± 0.7", "unit": "mm^2 × 10^−3"},
      {"measurement": "New Bone Area", "setting": "neonatal mouse calvaria; Experiment 2, 100 μM", "result": "Toxic"},
      {"measurement": "New Bone Area", "setting": "neonatal mouse calvaria; Experiment 2, 1000 μM", "result": "Toxic"},
      {"measurement": "New Bone Area", "setting": "neonatal mouse calvaria; Experiment 3, 0.1 μM", "result": "6.2 ± 0.6", "unit": "mm^2 × 10^−3"},
      {"measurement": "New Bone Area", "setting": "neonatal mouse calvaria; Experiment 3, 1 μM", "result": "7.5 ± 0.7", "unit": "mm^2 × 10^−3"},
      {"measurement": "New Bone Area", "setting": "neonatal mouse calvaria; Experiment 3, 10 μM", "result": "9.5 ± 2.4", "unit": "mm^2 × 10^−3"},
      {"measurement": "New Bone Area", "setting": "neonatal mouse calvaria; Experiment 3, 100 μM", "result": "Toxic"},
      {"measurement": "New Bone Area", "setting": "neonatal mouse calvaria; combination study, IBN (1 μM), ibandronate 1 μM alone", "result": "3.95 ± 0.28", "unit": "mm^2 × 10^−3"},
      {"measurement": "New Bone Area", "setting": "neonatal mouse calvaria; combination study, IBN (10 μM), ibandronate 10 μM alone", "result": "6.03 ± 1.56", "unit": "mm^2 × 10^−3"}
    ]}
  ]
}
